Data set [1] is described as follows: Plasma pharmacokinetics of LAAM in rabbits (intravenous, oral, buccal). To be noted: rabbit. As for the experimental part:
Twenty-four New Zealand white rabbits of mixed gender (weighing 3.6-4.0 kg) were obtained from ENVIGO and used in this study. […] All animal protocols were approved by the Institutional Animal Care and Use Committee at the Virginia Commonwealth University. […] Rabbits were anesthetized following an intramuscular injection of ketamine (50 mg/kg) and xylazine (5-7 mg/kg), followed by applying buccal films (1 mg/kg) into the buccal pouch. […] An oral solution (1 mg/kg) was administered by an oral syringe (1 mL), followed by an injection of ketamine/xylazine. After anesthesia, a catheter was inserted via the marginal ear vein for blood collection before dosing and at pre-determined time points (30 min before and at 5, 15, 30 min, and 1, 2, 3, 4, 8, 12, 24, 48, 72, 96, and 120 h) following administration. Eppendorf tubes contained EDTA (0.5 M) to prevent blood coagulation. Blood samples were placed on ice immediately following the collection for no longer than 5 min, plasma was separated by centrifugation (3000 g, at 0° C. for 3 min) and stored at −80° C. until analysis. At the endpoint (120 h), all animals were sacrificed. Urine, interest tissues (buccal mucosa, kidney, spleen, liver, gallbladder, muscle, brain, and spinal cord, mesenteric fat, perirenal fat, neck fat, inguinal fat) were harvested and stored at −80° C. until analysis. The buccal mucosa tissues and control in contact with fiber film formulations were collected for histopathological analysis using H&E staining. […] Non-compartmental analysis (NCA) was applied to calculate pharmacokinetic parameters derived from plasma concentration-time profiles. The absolute bioavailability was subsequently calculated by comparing respective AUCs, as shown by the following equation: […]

The conditions of data set [2]: rats; cited from earlier work.
For data set [3] the following is noted: weak base; cited from earlier work.
The conditions of data set [4]: humans; cited from earlier work.
The conditions of data set [5]: high permeability according to the FDA; cited from earlier work.
Setting [6] is: both, New Zealand white, plasma, iv, 0.8 mg/kg.
The mark [7] stands for this setting: both, New Zealand white, plasma, po, 1 mg/kg.

Read-outs that look alike come from different tables or passages of the source.

For the compound `CC[C@H](OC(C)=O)C(C[C@H](C)N(C)C)(c1ccccc1)c1ccccc1` [LAAM, [(3S,6S)-6-(dimethylamino)-4,4-diphenylheptan-3-yl]acetate], in data set [1] (setting [6]), the AUC(0-inf) stood at 284 ± 94.7 ng·h/mL, the AUC(0-t) was 274 ± 91.6 ng·h/mL, the C0 is 288 ± 133 ng/mL and the Vd is 30.6 ± 6.3 L/kg. Also, in data set [1] (setting [6]), the clearance was 51.7 mL/min/kg. Moreover, in data set [1] (setting [7]), the AUC(0-inf) came out at 69.5 ± 10 ng·h/mL, the AUC(0-t) turned out to be 65.7 ± 10.1 ng·h/mL, the Cmax came out at 20.7 ± 3.4 ng/mL and the Tmax came to 24 ± 12 min. In addition, in data set [1] (LAAM oral solution 1 mg/kg), the “LAAM F (%), bioavailability, calculated by AUCinf” value is 19.6 ± 2.8%. For the same compound, the “Oral bioavailability (Foral %)” value in data set [2] is recorded as about 60%. The pKa in data set [3] is given as 9.87. Further, the “Oral bioavailability (Foral %)” value in data set [4] is reported as “approximately 50%”.
Turning to `COCCc1ccc(OCC(O)CNC(C)C)cc1` (centres unmarked) [metoprolol], the “Permeability of model drug” value in data set [5] was 1.1e-05 cm/s.

As a reminder, the AUC(0-inf) is the area under the concentration-time curve extrapolated to infinity. High values mean high exposure, low ones low exposure. Broadly, the AUC(0-t) is the area under the concentration-time curve up to a stated or last time point. What is called Cmax is the highest concentration seen after dosing. In general, Tmax refers to the time from dosing to the highest level. By pKa is commonly meant the negative logarithm of the acid dissociation constant.

The record behind these values is patent publication US20250302751A1, “FORMULATIONS FOR ADM[…], norLAAM AND dinorLAAM AND METHODS OF THEIR USE TO TREAT OPIOID USE DISORDER” (VIRGINIA COMMONWEALTH UNIVERSITY, priority 2022, published 2025).
